One experiment deals with IDO2 (Homo sapiens (Human), UniProt Q6ZQW0). The experiment is described as follows: Cellular IDO2 assay, doxycycline and 5-methoxy-L-tryptophan medium, colorimetric. The class given is cell-based. Particulars: cellular level, 72 h incubation, signal at 480 nm.
Experiment [1] addresses Indoleamine 2,3-dioxygenase 1 (IDO1) (Homo sapiens (Human), UniProt P14902). Kind of experiment: Cellular IDO1 assay: kynurenine production in IFN-γ-stimulated HeLa cells, colorimetric.

Results on 8 compounds are retold here after US20250171452A1 (Viscient Bio, Inc., priority 2022, published 2025).

Some results are limits rather than exact numbers.

Chain of Indoleamine 2,3-dioxygenase 1 (IDO1) (P14902 whole entry): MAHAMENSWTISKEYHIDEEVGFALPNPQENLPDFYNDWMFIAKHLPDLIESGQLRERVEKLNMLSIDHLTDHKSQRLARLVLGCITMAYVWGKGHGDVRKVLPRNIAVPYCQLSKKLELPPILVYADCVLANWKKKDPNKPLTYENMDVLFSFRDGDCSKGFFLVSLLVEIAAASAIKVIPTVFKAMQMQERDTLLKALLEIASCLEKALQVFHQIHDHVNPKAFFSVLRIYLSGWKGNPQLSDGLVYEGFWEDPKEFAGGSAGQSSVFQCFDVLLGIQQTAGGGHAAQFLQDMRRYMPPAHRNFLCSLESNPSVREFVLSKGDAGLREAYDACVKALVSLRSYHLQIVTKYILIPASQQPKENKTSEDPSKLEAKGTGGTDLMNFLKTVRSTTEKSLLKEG
Chain of IDO2 (Q6ZQW0 whole entry, species assumed): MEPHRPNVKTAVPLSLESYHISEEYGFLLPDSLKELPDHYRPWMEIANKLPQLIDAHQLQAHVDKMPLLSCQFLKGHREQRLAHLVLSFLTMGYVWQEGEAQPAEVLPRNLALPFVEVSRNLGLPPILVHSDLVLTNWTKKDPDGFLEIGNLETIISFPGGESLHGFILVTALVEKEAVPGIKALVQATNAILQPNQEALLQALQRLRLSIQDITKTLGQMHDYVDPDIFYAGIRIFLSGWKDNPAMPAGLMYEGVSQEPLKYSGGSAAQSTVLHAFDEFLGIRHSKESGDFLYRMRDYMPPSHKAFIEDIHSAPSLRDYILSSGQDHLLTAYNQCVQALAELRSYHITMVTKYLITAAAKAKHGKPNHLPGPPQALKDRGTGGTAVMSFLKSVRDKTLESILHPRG
Procedure for IDO2: IDO2 inhibition at the cellular level was evaluated in vitro using the following procedure.
Using cell culture medium, the volume of the suspension was adjusted to achieve a cell concentration of 20,000 cells/well (90 uL/well).
5-Methoxy-L-tryptophan powder was dissolved in the culture medium to a concentration of 10 mM, then filtered and sterilized with a 0.22 um filter. Doxycycline powder was dissolved in ddH2O to a concentration of 100 ug/ml, then filtered and sterilized with a 0.22 um filter. 5-aminolevulinic acid powder was dissolved in ddH2O to a concentration of 400 mM, then filtered and sterilized with a 0.22 um filter. A 2× Assay medium was then by diluting the doxycycline (from 100 ug/ml to 2 ug/ml) and 5-Methoxy-L-tryptophan (from 10 mM to 5 mM) in culture medium. The 5-aminolevulinic acid solution was also added to the solution (diluting the concentration from 400 mM to 2 mM) to get a 2× working solution.
After incubation, plates and reagents were allows to equilibrate to room temperature. […] Trichloroacetic acid powder was dissolved in ddH2O to prepare 6.1N trichloroacetic acid. […] The plates were incubated at 55° C. for 40 minutes, and then centrifuged for 10 min at 2500 rpm. […] Measurement of the signal was performed using Envision at 480 nm. Throughout the foregoing process, care was taken to prevent exposure to light.

With `O=c1c2c(Cl)cccc2[nH]c2cc3cc([N+](=O)[O-])ccc3n12` [Compound 39, 1-Chloro-8-nitroindolo[2,1-b]quinazolin-12(5H)-one], the IC50 is less than 50 nM against IDO2 and 50 to 500 nM in experiment [1].

Turning to `NC(=O)c1ccc2c(c1)C(=O)c1nc3cc(Cl)ccc3c(=O)n1-2` [Compound 8, 3-Chloro-6,12-dioxo-6,12-dihydroindolo[2,1-b]quinazoline-8-carboxamide], the IC50 (against IDO2; in experiment [1]) was 50 to 500 nM each time.

Turning to `Cc1cc(F)cc2c(=O)n3c(nc12)C(=O)c1cc([N+](=O)[O-])ccc1-3` [Compound 49, 2-Fluoro-4-methyl-8-nitroindolo[2,1-b]quinazoline-6,12-dione], the IC50 is less than 50 nM against IDO2 and 50 to 500 nM in experiment [1].

For the compound `O=C1c2cc([N+](=O)[O-])ccc2-n2c1nc1c(Cl)cccc1c2=O` [Compound 36, 4-Chloro-8-nitroindolo[2,1-b]quinazoline-6,12-dione], the values for the IC50 (against IDO2; in experiment [1]) were less than 50 nM and 50 to 500 nM, respectively.

`O=C1c2cc(F)ccc2-n2c1nc1c(Br)cccc1c2=O` [Compound 44, 4-Bromo-8-fluoroindolo[2,1-b]quinazoline-6,12-dione]: the IC50 against IDO2 was less than 50 nM; in experiment [1], 50 to 500 nM.

As to `CN1CCN(Cc2ccc3c(=O)n4c(nc3c2)C(=O)c2cc(F)ccc2-4)CC1` [Compound 15, 8-Fluoro-3-((4-methylpiperazin-1-yl)methyl)indolo[2,1-b]quinazoline-6,12-dione], the IC50 (at IDO2; in experiment [1]) was 50 to 500 nM each time.

Regarding `CC(=O)Nc1ccc2c(c1)C(=O)c1nc3cc(Cl)ccc3c(=O)n1-2` [Compound 7, N-(3-Chloro-6,12-dioxo-6,12-dihydroindolo[2,1-b]quinazolin-8-yl)acetamide], the IC50 (on IDO2; in experiment [1]) was 50 to 500 nM each time.

Take `Cc1ccc(F)c2c(=O)n3c(nc12)C(=O)c1cc([N+](=O)[O-])ccc1-3` [Compound 40]: the IC50 (on IDO2; in experiment [1]) was 50 to 500 nM each time.
